The data set in a line: recombinant barcode read abundance after kanamycin selection (control-corrected) (log10(CPM+1)); higher = more efficient recombination; sequences stand for … in AGTGCAGAGAAAATCGGCCAGTTTTCTCTGCCTGCAGTCCGCATGCCGT…AGATTTATGCAGCGGACTGCCTTTCTCCCAAAGTGATAAACCGGACAGTATCATGGACCGGTTTTCCCGGTAATCCGTATTTGCAAGGTTGGTTTCACT; site = the 11-nt target. The procedure, abridged:
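Duplicate cultures were plated either on chloramphenicol/ampicillin LB agar, serving as control, or on chloramphenicol/ampicillin/kanamycin with 0.1 mM IPTG. These came from a pooled E. coli library co-electroporated with a donor plasmid, each member pairing a target with an IS621 bridge RNA target-binding loop. Recombination efficiency equals averaged, control-corrected counts per million of recombinant-junction barcodes. It is listed as log10(CPM+1).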
Consider “CAGTTGGCTTGGGTTCTAACCTGTTGCCT (site CAGTTAGCTAG)”, for which the “recombinant barcode read abundance (log10)” value was 0.04.

As to “CAGTTGGCTTGGGTTCTAACCTGTTGCCT (site CAGTTCGCTAG)”, the “recombinant barcode read abundance (log10)” value is 0.0864. The figure for “CAGTTGGCTTGGGTTCTAACCTGTTGCCT (site CAGTTGGCTAG)” is 1.01; for “CAGTTGGCTTGGGTTCTAACCTGTTGCCT (site CAGTTTGCTAG)” it is 0.232. The figure for “CATAGACCTTGGGTTCTAACCTGTTGCAT (site CATAGACCTAT)” is 1.82. The value for “CATAGACCTTGGGTTCTAACCTGTTGCAT (site CATAGCCCTAT)” was 0.0625; that for “CATAGACCTTGGGTTCTAACCTGTTGCAT (site CATAGGCCTAT)” was 0.0233; that for “CATAGACCTTGGGTTCTAACCTGTTGCAT (site CATAGTCCTAT)” was 0.0411.

For the sequence “CATAGACCTTGGGTTCTAACCTGTTGCCT (site CATAGACCTAG)”, the “recombinant barcode read abundance (log10)” value is 1.45. On to “CATAGACCTTGGGTTCTAACCTGTTGCCT (site GATAGACCTAG)”, for which the “recombinant barcode read abundance (log10)” value is 0.00901. With “CATAGATCTTGGGTTCTAACCTGTTGCTT (site CAAAGATCTAA)”, the “recombinant barcode read abundance (log10)” value came out at 0.271. The value for “CATAGATCTTGGGTTCTAACCTGTTGCTT (site CACAGATCTAA)” was 0.385.

In the case of “CATAGATCTTGGGTTCTAACCTGTTGCTT (site CAGAGATCTAA)”, the “recombinant barcode read abundance (log10)” value was found to be 0.0253. “CATAGATCTTGGGTTCTAACCTGTTGCTT (site CATAGATCTAA)”: the “recombinant barcode read abundance (log10)” value was 0.119. The value for “CATAGCCCTTGGGTTCTAACCTGTTGCAT (site CATAGACCTAT)” was 0.176. The value for “CATAGCCCTTGGGTTCTAACCTGTTGCAT (site CATAGCCCTAT)” was 1.11; that for “CATAGCCCTTGGGTTCTAACCTGTTGCAT (site CATAGGCCTAT)” was 0.117; that for “CATAGCCCTTGGGTTCTAACCTGTTGCAT (site CATAGTCCTAT)” was 0.0192.

For the sequence “CATATCCCTTGGGTTCTAACCTGTTGCAT (site CATATCCCTAT)”, the “recombinant barcode read abundance (log10)” value came out at 1.33. For “CATATCCCTTGGGTTCTAACCTGTTGCAT (site CTAATCCCTAT)”, the “recombinant barcode read abundance (log10)” value amounted to 0.03. Consider “CATATGACTTGGGTTCTAACCTGTTGCCT (site CATATGACTAG)”, for which the “recombinant barcode read abundance (log10)” value worked out at 1.2. For the sequence “CATATGACTTGGGTTCTAACCTGTTGCCT (site TCAGGAGCTTA)”, the “recombinant barcode read abundance (log10)” value came to 0.126. The figure for “CATCATTCTTGGGTTCTAACCTGTTGCCT (site CATAATTCTAG)” is 0.144; for “CATCATTCTTGGGTTCTAACCTGTTGCCT (site CATCATTCTAG)” it is 0.215.

Consider “CATCATTCTTGGGTTCTAACCTGTTGCCT (site CATGATTCTAG)”, for which the “recombinant barcode read abundance (log10)” value was determined as 0.118.

As to “CATCATTCTTGGGTTCTAACCTGTTGCCT (site CATTATTCTAG)”, the “recombinant barcode read abundance (log10)” value was found to be 0. The value for “CATCCGACTTGGGTTCTAACCTGTTGCCT (site CATCCGACTAG)” was 0.92; that for “CATCCGACTTGGGTTCTAACCTGTTGCCT (site CATCCGCCTAG)” was 0.163; that for “CATCCGACTTGGGTTCTAACCTGTTGCCT (site CATCCGGCTAG)” was 0.33. Turning to “CATCCGACTTGGGTTCTAACCTGTTGCCT (site CATCCGTCTAG)”, the “recombinant barcode read abundance (log10)” value was 0.0237. The value for “CATCCTCCTTGGGTTCTAACCTGTTGCTG (site CATCCTACTCC)” was 0.463; that for “CATCCTCCTTGGGTTCTAACCTGTTGCTG (site CATCCTCCTCA)” was 0.666; that for “CATCGGACTTGGGTTCTAACCTGTTGCAA (site CATCGGACTTT)” was 1.14. The figure for “CATCGGACTTGGGTTCTAACCTGTTGCAA (site GGCTAACCTAG)” is 0.336; for “CATGACACTTGGGTTCTAACCTGTTGCCT (site CATGACACTAG)” it is 2.45; for “CATGACACTTGGGTTCTAACCTGTTGCCT (site CATGCCGCTAG)” it is 0.0486. Turning to “CATGCTACTTGGGTTCTAACCTGTTGCTC (site CATGCGACTCA)”, the “recombinant barcode read abundance (log10)” value amounted to 0.191. The value for “CATGCTACTTGGGTTCTAACCTGTTGCTC (site CATGCTACTGA)” was 0.627; that for “CATGTGCCTTGGGTTCTAACCTGTTGCCT (site CATGTGCCTAG)” was 1.89. The figure for “CATGTGCCTTGGGTTCTAACCTGTTGCCT (site TATGCGCCTAG)” is 0.329; for “CATTATCCTTGGGTTCTAACCTGTTGCGT (site CATTATCCTAC)” it is 1.59.

As for “CATTATCCTTGGGTTCTAACCTGTTGCGT (site CATTGTCCTAC)”, the “recombinant barcode read abundance (log10)” value was determined as 0.0752. In the case of “CATTCCTCTTGGGTTCTAACCTGTTGCCT (site CATTCCTCTAG)”, the “recombinant barcode read abundance (log10)” value turned out to be 0.0779.

On to “CATTCCTCTTGGGTTCTAACCTGTTGCCT (site CCTTCCTCTAG)”, for which the “recombinant barcode read abundance (log10)” value was determined as 0.122. The value for “CATTCCTCTTGGGTTCTAACCTGTTGCCT (site CGTTCCTCTAG)” was 0.0677; that for “CATTCCTCTTGGGTTCTAACCTGTTGCCT (site CTTTCCTCTAG)” was 0.0613. With “CATTCGCCTTGGGTTCTAACCTGTTGCGT (site CATTCGCCTAC)”, the “recombinant barcode read abundance (log10)” value amounted to 0.329. The value for “CATTCGCCTTGGGTTCTAACCTGTTGCGT (site TGGCTAGCTGT)” was 0.138.

Regarding “CATTGCCCTTGGGTTCTAACCTGTTGCCT (site CATTGCCCTAG)”, the “recombinant barcode read abundance (log10)” value worked out at 0.234. Take “CATTGCCCTTGGGTTCTAACCTGTTGCCT (site CCTTGCCCTAG)”: the “recombinant barcode read abundance (log10)” value turned out to be 0.2.

On to “CATTGCCCTTGGGTTCTAACCTGTTGCCT (site CGTTGCCCTAG)”, for which the “recombinant barcode read abundance (log10)” value turned out to be 0.242. As for “CATTGCCCTTGGGTTCTAACCTGTTGCCT (site CTTTGCCCTAG)”, the “recombinant barcode read abundance (log10)” value is 0.0205. The value for “CATTGGACTTGGGTTCTAACCTGTTGCTT (site AATTGGACTAA)” was 0.222. The value for “CATTGGACTTGGGTTCTAACCTGTTGCTT (site CATTGGACTAA)” was 0.371; that for “CATTGGACTTGGGTTCTAACCTGTTGCTT (site GATTGGACTAA)” was 0.023; that for “CATTGGACTTGGGTTCTAACCTGTTGCTT (site TATTGGACTAA)” was 0.111. For “CATTGTACTTGGGTTCTAACCTGTTGCTA (site CATCGGACTTA)”, the “recombinant barcode read abundance (log10)” value was found to be 0.104. Turning to “CATTGTACTTGGGTTCTAACCTGTTGCTA (site CATTGTACTTA)”, the “recombinant barcode read abundance (log10)” value is 0.457. On to “CCAAAGACTTGGGTTCTAACCTGTTGCAT (site CCAAAGACTAT)”, for which the “recombinant barcode read abundance (log10)” value worked out at 0.523. Turning to “CCAAAGACTTGGGTTCTAACCTGTTGCAT (site CTAAAGACTGT)”, the “recombinant barcode read abundance (log10)” value was 0.334.

As for “CCAACCGCTTGGGTTCTAACCTGTTGCCT (site CAAACCGCTAG)”, the “recombinant barcode read abundance (log10)” value came to 0.0169. “CCAACCGCTTGGGTTCTAACCTGTTGCCT (site CCAACCGCTAG)”: the “recombinant barcode read abundance (log10)” value came out at 0.423. Consider “CCAACCGCTTGGGTTCTAACCTGTTGCCT (site CGAACCGCTAG)”, for which the “recombinant barcode read abundance (log10)” value was found to be 0.043.

Take “CCAACCGCTTGGGTTCTAACCTGTTGCCT (site CTAACCGCTAG)”: the “recombinant barcode read abundance (log10)” value came to 0.0644.

For the sequence “CCAAGCCCTTGGGTTCTAACCTGTTGCCT (site CCAAGCACTAG)”, the “recombinant barcode read abundance (log10)” value is 0.202. Take “CCAAGCCCTTGGGTTCTAACCTGTTGCCT (site CCAAGCCCTAG)”: the “recombinant barcode read abundance (log10)” value was determined as 0.142. With “CCAAGCCCTTGGGTTCTAACCTGTTGCCT (site CCAAGCGCTAG)”, the “recombinant barcode read abundance (log10)” value was determined as 0.0593. The figure for “CCAAGCCCTTGGGTTCTAACCTGTTGCCT (site CCAAGCTCTAG)” is 0.0835; for “CCAAGGACTTGGGTTCTAACCTGTTGCCT (site CCAAGGACTAG)” it is 0.348; for “CCAAGGACTTGGGTTCTAACCTGTTGCCT (site CCACGGACTAG)” it is 0.0394. Regarding “CCAAGGACTTGGGTTCTAACCTGTTGCCT (site CCAGGGACTAG)”, the “recombinant barcode read abundance (log10)” value was determined as 0.47. The value for “CCAAGGACTTGGGTTCTAACCTGTTGCCT (site CCATGGACTAG)” was 0.0382; that for “CCAAGGGCTTGGGTTCTAACCTGTTGCTG (site CCAAGGGCTCA)” was 1.31; that for “CCAAGGGCTTGGGTTCTAACCTGTTGCTG (site CCAAGGGCTCC)” was 0.136.

For “CCAAGGGCTTGGGTTCTAACCTGTTGCTG (site CCAAGGGCTCG)”, the “recombinant barcode read abundance (log10)” value worked out at 0.0611. “CCAAGGGCTTGGGTTCTAACCTGTTGCTG (site CCAAGGGCTCT)”: the “recombinant barcode read abundance (log10)” value came out at 0.727. Turning to “CCACAGTCTTGGGTTCTAACCTGTTGCCT (site CCACAGTCTAG)”, the “recombinant barcode read abundance (log10)” value is 1.44.
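Note: IS621 recombinase and bridge RNA in Escherichia coli cells.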
